Key:
[1] = molecular target: T1, DNA topoisomerase 1 (Homo sapiens) (UniProt P11387); experiment: Inhibition of human topoisomerase-1 assessed as inhibition of relaxation of supercoiled pBR322 plasmid DNA at 100 uM measured after 1 hr by ethidium bromide staining based agarose gel electrophoresis relative to control
T1 sequence (whole entry): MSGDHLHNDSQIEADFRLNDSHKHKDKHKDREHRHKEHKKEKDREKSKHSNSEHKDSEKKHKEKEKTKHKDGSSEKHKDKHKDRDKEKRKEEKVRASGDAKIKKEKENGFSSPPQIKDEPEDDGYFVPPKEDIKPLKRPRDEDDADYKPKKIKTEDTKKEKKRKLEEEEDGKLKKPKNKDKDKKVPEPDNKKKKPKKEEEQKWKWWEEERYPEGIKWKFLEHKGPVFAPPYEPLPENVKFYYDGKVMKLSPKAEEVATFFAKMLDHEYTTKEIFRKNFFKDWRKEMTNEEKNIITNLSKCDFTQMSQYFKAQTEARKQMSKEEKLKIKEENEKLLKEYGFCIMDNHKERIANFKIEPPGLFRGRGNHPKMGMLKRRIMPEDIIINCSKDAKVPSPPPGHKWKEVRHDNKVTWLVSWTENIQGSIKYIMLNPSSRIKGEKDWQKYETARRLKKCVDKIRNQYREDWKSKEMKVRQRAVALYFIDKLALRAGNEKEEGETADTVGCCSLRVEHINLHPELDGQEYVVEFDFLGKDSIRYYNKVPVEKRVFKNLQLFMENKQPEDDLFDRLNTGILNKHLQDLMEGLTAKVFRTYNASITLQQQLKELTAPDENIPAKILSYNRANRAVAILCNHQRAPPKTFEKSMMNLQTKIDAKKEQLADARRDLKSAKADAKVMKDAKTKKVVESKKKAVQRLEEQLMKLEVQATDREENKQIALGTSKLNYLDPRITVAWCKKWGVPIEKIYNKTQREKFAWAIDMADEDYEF

[2] = molecular target: T1, DNA topoisomerase 1 (Homo sapiens); experiment: Inhibition of human topoisomerase-1 assessed as inhibition of relaxation of supercoiled pBR322 plasmid DNA at 20 uM measured after 1 hr by ethidium bromide staining based agarose gel electrophoresis relative to control
[3] = molecular target: DNA topoisomerase 2-alpha (Homo sapiens) (UniProt P11388); experiment: Inhibition of human topoisomerase-2 alpha assessed as inhibition of relaxation of supercoiled pBR322 plasmid DNA at 100 uM measured after 1 hr by ethidium bromide staining based agarose gel electrophoresis relative to control
DNA topoisomerase 2-alpha (Homo sapiens), sequence (P11388 whole entry): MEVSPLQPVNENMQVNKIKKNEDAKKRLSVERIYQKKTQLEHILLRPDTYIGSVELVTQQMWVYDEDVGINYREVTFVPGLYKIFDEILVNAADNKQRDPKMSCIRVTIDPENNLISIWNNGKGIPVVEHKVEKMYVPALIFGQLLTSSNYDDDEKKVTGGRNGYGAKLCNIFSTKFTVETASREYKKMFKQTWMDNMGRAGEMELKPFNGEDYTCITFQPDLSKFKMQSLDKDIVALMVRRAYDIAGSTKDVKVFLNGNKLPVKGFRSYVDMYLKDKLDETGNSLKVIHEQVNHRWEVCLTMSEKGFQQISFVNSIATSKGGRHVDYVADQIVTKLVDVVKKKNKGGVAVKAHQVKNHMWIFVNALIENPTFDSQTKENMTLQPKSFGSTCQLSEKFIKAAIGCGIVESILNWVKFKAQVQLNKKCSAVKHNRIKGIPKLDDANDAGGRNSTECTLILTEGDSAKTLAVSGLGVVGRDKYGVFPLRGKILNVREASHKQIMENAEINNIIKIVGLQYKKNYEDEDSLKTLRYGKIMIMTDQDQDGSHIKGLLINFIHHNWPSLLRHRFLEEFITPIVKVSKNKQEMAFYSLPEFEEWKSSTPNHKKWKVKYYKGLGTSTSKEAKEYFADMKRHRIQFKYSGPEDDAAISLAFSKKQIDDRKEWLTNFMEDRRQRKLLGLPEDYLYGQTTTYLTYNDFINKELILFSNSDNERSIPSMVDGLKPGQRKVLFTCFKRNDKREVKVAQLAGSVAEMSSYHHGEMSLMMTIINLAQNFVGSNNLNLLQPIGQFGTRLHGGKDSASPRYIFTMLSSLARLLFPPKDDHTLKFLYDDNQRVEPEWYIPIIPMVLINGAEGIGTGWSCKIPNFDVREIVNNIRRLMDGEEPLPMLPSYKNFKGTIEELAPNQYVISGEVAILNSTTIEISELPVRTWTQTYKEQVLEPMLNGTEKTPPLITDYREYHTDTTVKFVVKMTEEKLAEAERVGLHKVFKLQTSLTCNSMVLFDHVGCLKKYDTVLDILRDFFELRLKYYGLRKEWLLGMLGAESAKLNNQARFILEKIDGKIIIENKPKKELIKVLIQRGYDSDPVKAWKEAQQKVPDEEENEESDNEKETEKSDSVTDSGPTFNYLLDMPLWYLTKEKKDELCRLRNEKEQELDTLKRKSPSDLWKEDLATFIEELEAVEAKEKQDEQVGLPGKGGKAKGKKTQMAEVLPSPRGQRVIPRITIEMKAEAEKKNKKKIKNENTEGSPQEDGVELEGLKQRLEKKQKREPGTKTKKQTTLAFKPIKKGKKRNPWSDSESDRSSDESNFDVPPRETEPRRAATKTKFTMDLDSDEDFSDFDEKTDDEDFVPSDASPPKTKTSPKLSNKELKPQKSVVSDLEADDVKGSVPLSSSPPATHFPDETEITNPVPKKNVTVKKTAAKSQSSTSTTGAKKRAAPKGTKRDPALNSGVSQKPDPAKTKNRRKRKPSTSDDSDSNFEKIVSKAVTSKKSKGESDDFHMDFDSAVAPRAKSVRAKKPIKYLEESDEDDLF

Row | Structure (SMILES) | inhibition [1] [%] | inhibition [2] [%] | inhibition [3] [%]
1 | CCOc1ccc2c(c1)Oc1cc(OC(=O)c3ccccc3)ccc1C21c2ccccc2C(=O)N1/N=C/c1ccc(OC)c(OC(=O)c2ccccc2)c1 (stereo unspecified) | 89.4 | 72 | 2.7
2 | CCOc1ccc2c(c1)Oc1cc(OC(=O)c3ccccc3)ccc1C21c2ccccc2C(=O)N1/N=C/c1ccc(OC(=O)c2ccccc2)cc1 (stereo unspecified) | 75.3 | 9.2 | 7.9
3 | CCOc1ccc2c(c1)Oc1cc(OC(=O)c3ccccc3Cl)ccc1C21c2ccccc2C(=O)N1/N=C/c1ccc(OC)c(OC(=O)c2ccccc2Cl)c1 (stereo unspecified) | 86.6 | 1.7 | 4.8
4 | CCOc1ccc2c(c1)Oc1cc(OC(=O)c3ccccc3OC)ccc1C21c2ccccc2C(=O)N1/N=C/c1ccc(OC)cc1 (stereo unspecified) | 35.6 | 17.3 | 4.8
5 | CCOc1ccc2c(c1)Oc1cc(OC(=O)c3ccccc3Cl)ccc1C21c2ccccc2C(=O)N1/N=C/c1ccc(OC(=O)c2ccccc2Cl)cc1 (stereo unspecified) | 30.1 | 24.6 | 13.1
6 | CCOc1ccc2c(c1)Oc1cc(OC(=O)c3ccccc3OC)ccc1C21c2ccccc2C(=O)N1/N=C/c1ccccc1[N+](=O)[O-] (stereo unspecified) | 19 |  | 6.2
7 | CCOc1ccc2c(c1)Oc1cc(OC(=O)c3ccccc3)ccc1C21c2ccccc2C(=O)N1/N=C/c1ccccc1OC (stereo unspecified) | 81.3 | 48.1 | 6.9
8 | CCOc1ccc2c(c1)Oc1cc(OC(=O)c3ccccc3Cl)ccc1C21c2ccccc2C(=O)N1/N=C/c1ccc(OC)cc1 (stereo unspecified) | 3.3 |  | 5.6
9 | CCOc1ccc2c(c1)Oc1cc(OC(=O)c3ccccc3Cl)ccc1C21c2ccccc2C(=O)N1/N=C/c1cccc(OC(=O)c2ccccc2Cl)c1 (stereo unspecified) | 0 |  | 7
10 | CCOc1ccc2c(c1)Oc1cc(OC(=O)c3ccccc3[N+](=O)[O-])ccc1C21c2ccccc2C(=O)N1/N=C/c1ccc(OC(=O)c2ccccc2[N+](=O)[O-])cc1 (stereo unspecified) | 22.7 |  | 13.2
11 | CCOc1ccc2c(c1)Oc1cc(OC(=O)c3ccccc3)ccc1C21c2ccccc2C(=O)N1/N=C/c1ccccc1[N+](=O)[O-] (stereo unspecified) | 55.4 | 0 | 6.1
12 | CCOc1ccc2c(c1)Oc1cc(OC(=O)c3ccccc3OC)ccc1C21c2ccccc2C(=O)N1/N=C/c1ccc(Cl)cc1Cl (stereo unspecified) | 69.2 | 10 | 25
13 | CCOc1ccc2c(c1)Oc1cc(OC(=O)c3ccccc3[N+](=O)[O-])ccc1C21c2ccccc2C(=O)N1/N=C/c1ccccc1OC (stereo unspecified) | 79.3 | 34.4 | 9
14 | CCOc1ccc2c(c1)Oc1cc(OC(=O)c3ccccc3Cl)ccc1C21c2ccccc2C(=O)N1/N=C/c1ccc(Cl)cc1Cl (stereo unspecified) | 14.4 |  | 8.5
15 | CCOc1ccc2c(c1)Oc1cc(OC(=O)c3ccccc3)ccc1C21c2ccccc2C(=O)N1/N=C/c1ccc(Cl)cc1 (stereo unspecified) | 9.4 |  | 7
16 | CCOc1ccc2c(c1)Oc1cc(OC(=O)c3ccccc3[N+](=O)[O-])ccc1C21c2ccccc2C(=O)N1/N=C/c1cccc(OC(=O)c2ccccc2[N+](=O)[O-])c1 (stereo unspecified) | 0 |  | 6.6
17 | CCOc1ccc2c(c1)Oc1cc(OC(=O)c3ccccc3[N+](=O)[O-])ccc1C21c2ccccc2C(=O)N1/N=C/c1ccc(Cl)cc1 (stereo unspecified) | 12.9 |  | 10.8
18 | CCOc1ccc2c(c1)Oc1cc(OC(=O)c3ccccc3[N+](=O)[O-])ccc1C21c2ccccc2C(=O)N1/N=C/c1ccccc1[N+](=O)[O-] (stereo unspecified) | 16.9 |  | 7.5
19 | CCOc1ccc2c(c1)Oc1cc(OC(=O)c3ccccc3OC)ccc1C21c2ccccc2C(=O)N1/N=C/c1cccc(OC(=O)c2ccccc2OC)c1 (stereo unspecified) | 0 |  | 2.8
20 | CCOc1ccc2c(c1)Oc1cc(OC(=O)c3ccccc3OC)ccc1C21c2ccccc2C(=O)N1/N=C/c1ccc(Cl)cc1 (stereo unspecified) | 4.2 |  | 6.5
21 | CCOc1ccc2c(c1)Oc1cc(OC(=O)c3ccccc3Cl)ccc1C21c2ccccc2C(=O)N1/N=C/c1ccccc1OC(=O)c1ccccc1Cl (stereo unspecified) | 0 |  | 11.1
